Experimental data from ChEMBL document CHEMBL1201862, “PubChem BioAssay data set” (2004).
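Compound exposure: 48 hours, 5 concentrations, 96-well plates. Here, GI50 denotes the concentration required for 50% inhibition of growth.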 Activity calls are given as the source filed them. No stated cut-off is given here; in the data, active = GI50 up to about 1.1 µM and inactive = higher. Where a SMILES comes first, the peptide text is derived from it. [ ]: non-standard residue; d: D form. The star is where a group is joined. ξ: configuration not given here. X38 = O=C(OCc1ccccc1)[C@@H]1CCC[C@H]1N*; Fmoc = O=C(OCC1c2ccccc2-c2ccccc21)*; ξW = NC(Cc1c[nH]c2ccccc12)C(=O)O; ξF = NC(Cc1ccccc1)C(=O)O; Boc = CC(C)(C)OC(=O)*; ξK = NCCCCC(N)C(=O)O; ξT = CC(O)C(N)C(=O)O; tBu = CC(C)(C)*

Columns and labels:
Assay in all cases: NCI-60 cell line screen, 48 h
[1] = tested on: OVCAR-3
[2] = tested on: OVCAR-4
[3] = tested on: SW-620
[4] = tested on: SNB-19
[5] = tested on: TK-10
[6] = tested on: Hs-578T
[7] = tested on: IGROV-1
[8] = tested on: MOLT-4
[9] = tested on: UACC-62
[10] = tested on: T47D
[11] = tested on: HCT-116
[12] = tested on: NCI-H522
[13] = tested on: DU-145
[14] = tested on: RXF 393
[15] = tested on: MCF7
[16] = tested on: ACHN
[17] = tested on: UACC-257
[18] = tested on: A498

Cc1ccc(-c2nc3cc([N+](=O)[O-])ccc3[nH]2)cc1
GI50 [1]: 67.5 µM (inactive)
GI50 [2]: 81.8 µM (inactive)
GI50 [3]: > 100 µM (inactive)
GI50 [4]: > 100 µM (inactive)
GI50 [5]: > 100 µM (inactive)
GI50 [6]: > 100 µM (inactive)
GI50 [7]: > 100 µM (inactive)
GI50 [8]: 47.4 µM (inactive)
GI50 [9]: > 100 µM (inactive)
GI50 [10]: 39.6 µM (inactive)
GI50 [11]: 89.9 µM (inactive)
GI50 [12]: 41.7 µM (inactive)
GI50 [13]: 82.8 µM (inactive)
GI50 [14]: > 100 µM (inactive)
GI50 [15]: > 100 µM (inactive)
GI50 [16]: 53 µM (inactive)
GI50 [17]: 80.4 µM (inactive)

CCCCC/N=C/c1c(O)c(O)c(C(C)C)c2cc(C)c(-c3c(C)cc4c(C(C)C)c(O)c(O)c(/C=N/CCCCC)c4c3O)c(O)c12
GI50 [1]: 5.28 µM (inactive)
GI50 [3]: 6.97 µM (inactive)
GI50 [4]: 3.78 µM (inactive)
GI50 [5]: 15 µM (inactive)
GI50 [6]: 17.2 µM (inactive)
GI50 [7]: 9.98 µM (inactive)
GI50 [9]: 7.03 µM (inactive)
GI50 [10]: 3.98 µM (inactive)
GI50 [11]: 11 µM (inactive)
GI50 [12]: 5.05 µM (inactive)
GI50 [13]: 19.5 µM (inactive)
GI50 [14]: 11.2 µM (inactive)
GI50 [15]: 4.81 µM (inactive)
GI50 [16]: 3.59 µM (inactive)
GI50 [18]: 27.3 µM (inactive)
GI50 [17]: 15.6 µM (inactive)

CC(C)C1OC(/C=C/c2ccccc2)OCC1(C)C (stereo not given)
GI50 [1]: 20.4 µM (inactive)
GI50 [2]: 33.6 µM (inactive)
GI50 [3]: 30.7 µM (inactive)
GI50 [4]: 41.4 µM (inactive)
GI50 [5]: 35.1 µM (inactive)
GI50 [6]: 22.8 µM (inactive)
GI50 [7]: 40.1 µM (inactive)
GI50 [9]: 45.7 µM (inactive)
GI50 [10]: 31.4 µM (inactive)
GI50 [11]: 25.4 µM (inactive)
GI50 [12]: 13.8 µM (inactive)
GI50 [13]: 37.2 µM (inactive)
GI50 [14]: 18.1 µM (inactive)
GI50 [15]: 31.8 µM (inactive)
GI50 [16]: 32.2 µM (inactive)
GI50 [18]: 24 µM (inactive)
GI50 [17]: 24.8 µM (inactive)

CC(=O)Nc1ccc(N2C(=O)/C(=C\c3cccc(Oc4ccccc4)c3)SC2c2ccccc2)cc1 (stereo not given)
GI50 [1]: 25.5 µM (inactive)
GI50 [2]: 32.4 µM (inactive)
GI50 [3]: 30.8 µM (inactive)
GI50 [4]: 19.8 µM (inactive)
GI50 [5]: 34.4 µM (inactive)
GI50 [6]: 12.7 µM (inactive)
GI50 [8]: 27.9 µM (inactive)
GI50 [9]: 22.4 µM (inactive)
GI50 [10]: 54.1 µM (inactive)
GI50 [11]: 18.1 µM (inactive)
GI50 [12]: 23.2 µM (inactive)
GI50 [13]: 27.5 µM (inactive)
GI50 [14]: 30.4 µM (inactive)
GI50 [15]: 21 µM (inactive)
GI50 [16]: 71 µM (inactive)
GI50 [18]: 50.1 µM (inactive)
GI50 [17]: 35 µM (inactive)

c1ccc(C(CCN2CCCC2)c2ccccn2)cc1 (stereo not given)
GI50 [2]: > 100 µM (inactive)
GI50 [3]: > 100 µM (inactive)
GI50 [4]: > 100 µM (inactive)
GI50 [5]: > 100 µM (inactive)
GI50 [6]: > 100 µM (inactive)
GI50 [7]: > 100 µM (inactive)
GI50 [9]: > 100 µM (inactive)
GI50 [10]: > 100 µM (inactive)
GI50 [11]: > 100 µM (inactive)
GI50 [12]: > 100 µM (inactive)
GI50 [13]: > 100 µM (inactive)
GI50 [14]: > 100 µM (inactive)
GI50 [15]: > 100 µM (inactive)
GI50 [16]: > 100 µM (inactive)
GI50 [18]: > 100 µM (inactive)
GI50 [17]: > 100 µM (inactive)

COc1ccc(/N=C(C)/C(C)=N/c2ccc(OC)cc2)cc1
GI50 [1]: > 100 µM (inactive)
GI50 [2]: 17.7 µM (inactive)
GI50 [3]: 63.1 µM (inactive)
GI50 [4]: > 100 µM (inactive)
GI50 [5]: > 100 µM (inactive)
GI50 [6]: > 100 µM (inactive)
GI50 [7]: > 100 µM (inactive)
GI50 [8]: 15.6 µM (inactive)
GI50 [10]: 77.1 µM (inactive)
GI50 [11]: 72.6 µM (inactive)
GI50 [12]: > 100 µM (inactive)
GI50 [13]: 30.9 µM (inactive)
GI50 [14]: > 100 µM (inactive)
GI50 [15]: > 100 µM (inactive)
GI50 [16]: 3.36 µM (inactive)
GI50 [18]: > 100 µM (inactive)
GI50 [17]: 56.9 µM (inactive)

O=C1c2ccccc2NC(=O)C2C1C(c1ccccc1)CC2(O)c1ccccc1 (stereo not given)
GI50 [1]: 31.6 µM (inactive)
GI50 [2]: 17.7 µM (inactive)
GI50 [3]: 50.8 µM (inactive)
GI50 [4]: 35.2 µM (inactive)
GI50 [5]: 39.3 µM (inactive)
GI50 [6]: 34.5 µM (inactive)
GI50 [7]: 52.4 µM (inactive)
GI50 [8]: 15.4 µM (inactive)
GI50 [9]: > 100 µM (inactive)
GI50 [10]: 49.7 µM (inactive)
GI50 [11]: 16.9 µM (inactive)
GI50 [13]: > 100 µM (inactive)
GI50 [14]: 80.9 µM (inactive)
GI50 [15]: > 100 µM (inactive)
GI50 [16]: 37 µM (inactive)
GI50 [18]: > 100 µM (inactive)
GI50 [17]: 79.4 µM (inactive)

COC1CC(OC(=O)c2ccccc2)C(OC(=O)c2ccccc2)C(C)O1 (stereo not given)
GI50 [1]: > 100 µM (inactive)
GI50 [3]: > 100 µM (inactive)
GI50 [4]: > 100 µM (inactive)
GI50 [5]: > 100 µM (inactive)
GI50 [6]: 59.8 µM (inactive)
GI50 [7]: > 100 µM (inactive)
GI50 [8]: > 100 µM (inactive)
GI50 [9]: > 100 µM (inactive)
GI50 [10]: > 100 µM (inactive)
GI50 [11]: > 100 µM (inactive)
GI50 [12]: > 100 µM (inactive)
GI50 [13]: > 100 µM (inactive)
GI50 [14]: > 100 µM (inactive)
GI50 [15]: > 100 µM (inactive)
GI50 [16]: > 100 µM (inactive)
GI50 [18]: > 100 µM (inactive)
GI50 [17]: > 100 µM (inactive)

Clc1ncnc2c1nc(C#Cc1ccccc1)n2C1CCCCO1 (stereo not given)
GI50 [1]: 1.37 µM (inactive)
GI50 [2]: 1.87 µM (inactive)
GI50 [3]: 1.86 µM (inactive)
GI50 [4]: 2.53 µM (inactive)
GI50 [5]: 2.63 µM (inactive)
GI50 [6]: 3.95 µM (inactive)
GI50 [8]: 2.02 µM (inactive)
GI50 [9]: 2.42 µM (inactive)
GI50 [10]: 1.7 µM (inactive)
GI50 [11]: 1.82 µM (inactive)
GI50 [12]: 1.81 µM (inactive)
GI50 [13]: 1.47 µM (inactive)
GI50 [14]: 1.51 µM (inactive)
GI50 [15]: 1.37 µM (inactive)
GI50 [16]: 1.69 µM (inactive)
GI50 [18]: 2.63 µM (inactive)
GI50 [17]: 2.61 µM (inactive)

COc1cc(C2c3cc4c(cc3OC(NN)C2C)OCO4)cc(OC)c1OC (stereo not given)
GI50 [1]: 0.265 µM (active)
GI50 [2]: 23.6 µM (inactive)
GI50 [3]: 0.447 µM (active)
GI50 [4]: 0.813 µM (active)
GI50 [5]: 28.3 µM (inactive)
GI50 [6]: 0.234 µM (active)
GI50 [7]: 1.46 µM (inactive)
GI50 [8]: 0.406 µM (active)
GI50 [9]: 0.495 µM (active)
GI50 [10]: 87.3 µM (inactive)
GI50 [11]: 0.473 µM (active)
GI50 [12]: 0.869 µM (active)
GI50 [13]: 1.94 µM (inactive)
GI50 [14]: 0.593 µM (active)
GI50 [15]: 0.443 µM (active)
GI50 [16]: 1.78 µM (inactive)
GI50 [18]: 0.257 µM (active)

CC(OC(C)(C)C)C(NC(=O)C(CCCCNC(=O)OC(C)(C)C)NC(=O)C(Cc1c[nH]c2ccccc12)NC(=O)C(Cc1ccccc1)NC(=O)OCC1c2ccccc2-c2ccccc21)C(=O)NC(Cc1ccccc1)C(=O)N[C@@H]1CCC[C@H]1C(=O)OCc1ccccc1 (stereo not given in full) (Fmoc-[ξF][ξW][ξK](Boc)[ξT](tBu)[ξF]-X38)
GI50 [1]: > 100 µM (inactive)
GI50 [2]: > 100 µM (inactive)
GI50 [3]: > 100 µM (inactive)
GI50 [5]: > 100 µM (inactive)
GI50 [6]: 31 µM (inactive)
GI50 [7]: > 100 µM (inactive)
GI50 [8]: > 100 µM (inactive)
GI50 [9]: > 100 µM (inactive)
GI50 [10]: > 100 µM (inactive)
GI50 [11]: > 100 µM (inactive)
GI50 [12]: > 100 µM (inactive)
GI50 [13]: > 100 µM (inactive)
GI50 [14]: > 100 µM (inactive)
GI50 [15]: > 100 µM (inactive)
GI50 [16]: > 100 µM (inactive)
GI50 [18]: > 10 µM (inactive)
GI50 [17]: > 100 µM (inactive)
